{"source": "paper PMC12909347", "about": "“Disconnect between in vitro and in vivo efficacy of the MPS1 inhibitor NTRC 0066-0 against glioblastoma” (Cellular Oncology, 2026)", "key": {"GSC750": {"test_system": "GSC750", "assay": "Cell survival assay, glioma stem cell line", "format": "cell-based, murine", "settings": "GSC750 (EgfrvIII;p15Ink4b/p16Ink4a-/-), Fig. 1C", "text": "(§1) All cell lines were authenticated using STR profiling. The serum-cultured GBM cell lines U87 (RRID: CVCL_0022) and HS683 (RRID: CVCL_0844) were purchased from the ATCC (Manassas, VA), T98G (RRID: CVCL_0556) and LN-428 (RRID: CVCL_3959) cells were kindly provided by Dr. Conchita Vens (Netherlands Cancer Institute, Amsterdam, The Netherlands), E98 cells were obtained from Prof. Dr. William Leenders (Radboud University Medical Center, Nijmegen, The Netherlands), and LN-751 (RRID: CVCL_3964) were generously made available by Prof. Dr. Monika Hegi (Centre Hospitalier Universitaire Vaudois, Lausanne, Switzerland). GSC lines were isolated from murine tumors that were generated by stereotactic injection of Lenti–Cre vector in the striatum of Egfr^vIII;p15^Ink4b/p16^Ink4aF/F (GSC750), Egfr^vIII;p15^Ink4b/p16^Ink4aF/F;Pten^F/F (GSC578) or Egfr^vIII;p15^Ink4b/p16^Ink4aF/F;Pten^F/F;Tp53^F/F (GSC556) mice, as previously described.\n(§2) Wells were pre-coated with poly-ornithine (15 µg/ml for 3 h at room temperature) and subsequently with laminin (7.5 µg/ml for 1 h at 37 °C) prior to seeding GSCs to make them adherent without inducing differentiation. […] Cells were plated in 24-wells plates at low cell densities (2,000–10,000 cells/well) and exposed to different concentrations of NTRC0066-0 24 h later. NTRC0066-0 was dissolved in DMSO (Sigma-Aldrich) for in vitro experiments and final DMSO concentrations never exceeded 0.1%. When untreated wells were confluent (approximately 6–10 days after seeding, dependent on the cell line), cells were fixed and stained using a solution containing 0.5% crystal violet (w/v; Sigma-Aldrich) and 6% glutaraldehyde (v/v; Honeywell, Morris Plains, NJ). Plates were imaged using a Chemi-Doc XRS+ (Bio-rad, Hercules, CA) and analyzed using the Colony Area plugin of ImageJ [24]. IC50 curves were fitted and plotted using the ‘log(inhibitor) vs. normalized response – Variable slope’ fitting procedure of GraphPad Prism v10.3 (GraphPad Software, La Jolla, CA). Monotherapy curves were corrected for untreated controls."}, "GSC578": {"test_system": "GSC578", "assay": "Cell survival assay, glioma stem cell line", "format": "cell-based, murine", "settings": "GSC578 (EgfrvIII;p15Ink4b/p16Ink4a-/-;Pten-/-), Fig. 1C", "text": "as §1, §2"}, "GSC556": {"test_system": "GSC556", "assay": "Cell survival assay, glioma stem cell line", "format": "cell-based, murine", "settings": "GSC556 (EgfrvIII;p15Ink4b/p16Ink4a-/-;Pten-/-;Tp53-/-), Fig. 1C", "text": "as §1, §2"}, "[1]": {"test_system": "orthotopic E98 GBM tumors", "assay": "Quantification of mitotic errors in E98 tumors", "format": "in vivo, mice", "settings": "end-stage E98 tumors, 5/10 mg/kg b.i.d.x7d", "experimental": "Tumor-bearing mouse brains were formalin-fixed, paraffin-embedded and coronal Sect. (10 μm) were sliced using an RM2255 microtome (Leica, Wetzlar, Germany). Sections were subsequently deparaffinized using xylene, incubated in citrate buffer for antigen retrieval, blocked with 4% (w/v) BSA in TBS-T, incubated with rabbit-α-pH3^Ser10 (1:250 for 3 h at room temperature; Merck Millipore, Burlington, MA), incubated with goat-α-rabbit-AF568 (1:250 for 45 min at room temperature; Thermo Fisher Scientific, Waltham, MA) and mounted with Vectashield hardset antifade mounting medium with DAPI (Vector Laboratories, Burlingame, CA). Mitotic errors were imaged and scored using a Deltavision ultra high resolution microscope (Applied Precision Inc., Issaquah, WA)."}, "[2]": {"assay": "Pharmacokinetics and brain penetration in Abcb1a/b;Abcg2-/- mice", "format": "in vivo", "settings": "for Plasma AUC, Abcb1a/b;Abcg2-/- vs WT mice: 10 mg/kg", "experimental": "The pharmacokinetics of NTRC 0066-0 were analyzed in wild-type (WT), Abcb1a/b^−/−, Abcg2^−/−, Abcb1a/b^−/−;Abcg2^−/− and Abcb1a/b^−/−;Abcg2^−/−;Abcc4^−/− FVB mice. All knockout mice strains have been developed at the Netherlands Cancer Institute. For i.v. administration, NTRC0066-0 was formulated in DMSO: Cremophor EL: saline (1:1:8 v/v) and injected at a dose of 5 mg/kg. For i.p and oral administration, NTRC0066-0 was administered at 5, 10 or 20 mg/kg as indicated. Serial blood sampling was done by tail vein bleeding at specific time points. At terminal time points, blood was drawn by cardiac puncture followed by tissue collection. Plasma was obtained from whole blood by centrifugation (5 min, 5,000 rpm, 4 °C) and tissues were weighed and homogenized using a FastPrep®-24 (MP-Biomedicals, NY) in 1% (w/v) bovine serum albumin (Sigma-Aldrich) in water.\nNTRC 0066-0 was extracted from in vitro and in vivo samples using liquid–liquid extraction with diethyl ether. Another MPS-1 inhibitor, Compound 5 (Cpd-5), was added to the samples as an internal standard. The dried organic phase was reconstituted in 30% methanol in water (v/v). Samples were measured using an LC-MS/MS system comprising an UltiMate 3000 LC Systems (Dionex, Sunnyvale, CA) and an API 4000 mass spectrometer (Sciex, Framingham, MA). Samples were injected on to a Securityguard C18 pre-column (Phenomenex, Utrecht, The Netherlands) connected to a ZORBAX Extend-C18 column (Agilent, Santa Clara, CA). Elution was done at a flow rate of 0.2 mL/min using a 5 min gradient from 20% to 95% B (mobile phase A was 0.1% HCOOH in water (v/v) and mobile phase B was methanol). 95% B was maintained for 3 min followed by re-equilibration at 20% B. Multiple reaction monitoring parameters were 566.2/391.4 (NTRC0066-0) and 581.6/397.0 (internal standard). Analyst® 1.6.2 software (Sciex) was used for system control and data analysis.\nPK solver was used to determine pharmacokinetic parameters. The standard error of the oral bioavailability was calculated using the formula below: […]"}, "[3]": {"settings": "Abcb1a/b;Abcg2-/-, i.p. 10 mg/kg"}, "[4]": {"settings": "Abcb1a/b;Abcg2-/-, p.o. 10 mg/kg"}}, "data": [{"smiles": "CCc1cccc(CC)c1NC(=O)c1ccn2c1CCc1cnc(Nc3ccc(N4CCN(C)CC4)cc3OC)nc1-2", "note": "[NTRC 0066-0]", "values": [{"measurement": "IC50", "setting": "GSC750", "value": 25, "unit": "nM"}, {"measurement": "IC50", "setting": "GSC578", "value": 46, "unit": "nM"}, {"measurement": "IC50", "setting": "GSC556", "value": 20, "unit": "nM"}, {"measurement": "Number of mitotic errors in tumors", "setting": "[1]", "value": "did not increase the number of mitotic errors"}, {"measurement": "Lowest plasma trough concentration", "setting": "[2]; 5 mg/kg p.o. morning + 10 mg/kg p.o. about 8 h later, 7 days (5/10 mg/kg b.i.d.x7d)", "value": "above 20 nM"}, {"measurement": "Brain concentration vs threshold level of in vitro efficacy", "setting": "[2]; 1, 4, 8 and 24 h after 20 mg/kg p.o.", "value": "remained well above the threshold level of in vitro efficacy"}, {"measurement": "Concentration at 24 h, Abcb1a/b;Abcg2-/- vs WT mice", "setting": "[2]; 24 h after 10 mg/kg", "value": "about 5 fold"}, {"measurement": "Plasma concentration", "setting": "[2]; 24 h after 20 mg/kg p.o.", "value": 6, "unit": "nM"}, {"measurement": "Brain penetration (brain vs plasma)", "setting": "[2]; Abcb1a/b;Abcg2-/- mice", "value": 20, "unit": "fold"}, {"measurement": "Brain-plasma ratio", "setting": "[2]; Abcb1a/b;Abcg2-/- mice", "value": "above 20"}, {"measurement": "Oral bioavailability (relative to i.p.)", "setting": "[2]; Abcb1a/b;Abcg2-/- mice", "value": "about 50%"}, {"measurement": "Brain concentration compared to Abcb1a/b-/- mice", "setting": "[2]; Abcb1a/b;Abcg2-/- mice, 1 h after 5 mg/kg i.v.", "value": "did not display further increased"}, {"measurement": "Brain-to-plasma ratio", "setting": "[2]; Abcb1a/b;Abcg2-/- mice, 24 h after 10 mg/kg p.o. or i.p.", "value": "approximately 20"}, {"measurement": "Cmax", "setting": "[2]; [3]", "value": "1700 ± 160", "unit": "nM"}, {"measurement": "MRT", "setting": "[2]; [3]", "value": "4.3 ± 0.4", "unit": "h"}, {"measurement": "t1/2", "setting": "[2]; [3]", "value": "3.4 ± 0.4", "unit": "h"}, {"measurement": "tmax", "setting": "[2]; [3]", "value": "0.8 ± 0.3", "unit": "h"}, {"measurement": "Plasma AUCi.p.", "setting": "[2]; Abcb1a/b;Abcg2-/-, i.p. 10 mg/kg, 0-∞", "value": "11,000 ± 2200 nM.h"}, {"measurement": "Cmax", "setting": "[2]; [4]", "value": "550 ± 52", "unit": "nM"}, {"measurement": "MRT", "setting": "[2]; [4]", "value": "5.2 ± 0.5", "unit": "h"}, {"measurement": "t1/2", "setting": "[2]; [4]", "value": "3.6 ± 0.2", "unit": "h"}, {"measurement": "tmax", "setting": "[2]; [4]", "value": "3.3 ± 1.5", "unit": "h"}, {"measurement": "F (bioavailability)", "setting": "[2]; Abcb1a/b;Abcg2-/-, p.o. 10 mg/kg relative to i.p.", "value": "43 ± 11", "unit": "%"}, {"measurement": "Plasma AUCp.o.", "setting": "[2]; Abcb1a/b;Abcg2-/-, p.o. 10 mg/kg, 0-∞", "value": "4.7 ± 0.71", "unit": "µM·h"}, {"measurement": "Plasma AUC, Abcb1a/b;Abcg2-/- vs WT mice", "setting": "[2]; after i.p. dosing", "value": "about 4 fold"}, {"measurement": "Plasma AUC, Abcb1a/b;Abcg2-/- vs WT mice", "setting": "[2]; after oral dosing", "value": "~3", "unit": "fold"}]}]}
